{
  "source": "patent US20090004677A1",
  "about": "“QUANTITATIVE DETERMINATION OF BCL10” (The Board of Trustees of the University of Illinois, priority 2007, published 2009)",
  "key": {"Bcl10": {"system": "Bcl10", "test": "solid-phase sandwich ELISA for Bcl10 in NCM460 cells", "assay_type": "cell-based, human"}, "IL-8": {"system": "IL-8", "test": "ELISA for IL-8 in spent media of NCM460 cells", "assay_type": "cell-based, human"}, "[1]": {"details": "NCM460 cells, 50 μM inhibitor 2 hours prior to 6 hours LPS 10 ng/ml"}, "[2]": {"details": "human IEC, LPS 10 ng/ml for 2-6 hours"}},
  "data": [
    {"smiles": "O=C(Nc1nc2ccccc2n1CCN1CCOCC1)c1cccc([N+](=O)[O-])c1", "note": "[IRAK 1/4 inhibitor, N-(2-morpholinylethyl)-2-(3-nitrobenzoylamido)-benzimidazole]", "values": [
      {"measurement": "Bcl10 after LPS with IRAK 1/4 inhibitor", "setting": "Bcl10; [1]", "value": "2.36 ± 0.08", "unit": "ng/mL"},
      {"measurement": "decline of the LPS-induced increase in Bcl10", "setting": "Bcl10; [1]", "value": 73, "unit": "%"},
      {"measurement": "effect on the LPS-induced increase in Bcl10 (result in words)", "setting": "Bcl10; [2]", "value": "eliminated"},
      {"measurement": "IL-8 after LPS with IRAK 1/4 inhibitor", "setting": "IL-8; [1]", "value": "1.14 ± 0.08", "unit": "ng/mL"},
      {"measurement": "decline of the LPS-induced increase in IL-8 response", "setting": "IL-8; [1]", "value": 60, "unit": "%"},
      {"measurement": "effect on the LPS-induced increase in IL-8 (result in words)", "setting": "IL-8; [2]", "value": "eliminated"}
    ]}
  ]
}
